We go through 73 compounds from BindingDB's records for doi:10.7270/Q2251GJ9 (The Scripps Research Institute Molecular Screening Center, 2007).

Sequence of Sphingosine 1-phosphate receptor 1 (P21453 whole entry): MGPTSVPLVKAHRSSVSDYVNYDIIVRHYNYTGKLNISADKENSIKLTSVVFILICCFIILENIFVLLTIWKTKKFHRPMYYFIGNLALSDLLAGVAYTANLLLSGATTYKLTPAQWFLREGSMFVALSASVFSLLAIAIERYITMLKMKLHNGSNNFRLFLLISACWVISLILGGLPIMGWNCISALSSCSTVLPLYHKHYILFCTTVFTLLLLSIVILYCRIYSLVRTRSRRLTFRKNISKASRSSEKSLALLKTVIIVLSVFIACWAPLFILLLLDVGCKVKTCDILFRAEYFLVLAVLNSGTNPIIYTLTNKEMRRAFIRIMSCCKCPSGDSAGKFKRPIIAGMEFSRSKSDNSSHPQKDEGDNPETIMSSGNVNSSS

One test concerns the target Sphingosine 1-phosphate receptor 1 (Homo sapiens, UniProt P21453). As to the kind of experiment: S1P1 receptor agonists, dose response, cell-based, agonist mode, 60K MLSMR set (AID 468).
Conditions: not given
Usually EC50 stands for the midpoint of the concentration-response curve. A low value points to greater potency. In turn, `COc1ccc(-c2n[nH]cc2-c2ccc3c(c2)OCCO3)c(O)c1` [(6E)-6-[4-(2,3-dihydro-1,4-benzodioxin-6-yl)-1,2-dihydropyrazol-3-ylidene]-3-methoxycyclohexa-2,4-dien-1-one] came in with an EC50 of 0.986 µM.
Same read-out and setting: the figure for `CCOC(=O)CN(C(=O)CSc1nnc(-c2cccc(OC)c2)o1)c1ccc(F)cc1` [((4-Fluoro-phenyl)-{2-[5-(3-methoxy-phenyl)-[1,3,4]oxadiazol-2-ylsulfanyl]-acetyl}-amino)-acetic acid ethyl ester] is 3.17 µM; for `CC(=N)C(C#N)C(=O)CSc1nc2cc(Cl)ccc2s1` (stereo not drawn) [(E)-3-amino-2-[2-[(5-chloro-1,3-benzothiazol-2-yl)sulfanyl]acetyl]but-2-enenitrile] it is 15.6 µM.
On the same count and under the same terms, the value for `CC(=N)C(C#N)C(=O)CSc1nnc(SCc2ccc(Cl)cc2)s1` (stereo not drawn) [(E)-3-amino-2-[2-[[5-[(4-chlorobenzyl)thio]-1,3,4-thiadiazol-2-yl]thio]acetyl]but-2-enenitrile] was 8.95 µM.
On the same count and under the same terms, the figure for `Cc1noc(/C=C/N(C)C)c1S(=O)(=O)N1CCN(c2ccccc2)CC1` [(E)-N,N-dimethyl-2-[3-methyl-4-(4-phenylpiperazin-1-yl)sulfonyl-1,2-oxazol-5-yl]ethenamine] is above 95 µM; for `O=S(=O)(C/C(=C/CO)S(=O)(=O)c1ccccc1)c1ccccc1` [(Z)-3,4-bis(benzenesulfonyl)but-2-en-1-ol] it is above 3 µM; for `CC(=O)Nc1cc(OC(C)=O)c2nonc2c1OC(C)=O` [Acetic acid 7-acetoxy-5-acetylamino-benzo[1,2,5]oxadiazol-4-yl ester] it is 7.53 µM.
In the case of `CCN(C(=O)C1CCCCC1)c1nnc(-c2cccnc2)s1` [Cyclohexanecarboxylic acid ethyl-(5-pyridin-3-yl-[1,3,4]thiadiazol-2-yl)-amide], the EC50 worked out at 2.13 µM.
Same read-out and setting: the figure for `COCCN(C(=O)c1ccccc1)c1nnc(-c2cccnc2)s1` [MLS000032523] is 6.68 µM.
Same read-out and setting: the value for `O=C(CCC(=O)N(Cc1ccco1)C(C(=O)NC1CCCC1)c1ccncc1)Nc1cccnc1` (stereo not drawn) [MLS000033292] was above 95 µM; that for `CC(C)(C)NC(=O)CSc1ncnc2c1nnn2Cc1ccccc1Cl` [MLS000034488] was 9.4 µM.
Same read-out and setting: the value for `CCOC(=O)Nc1ccc2c(c1)N(C(=O)CCN(C)C)c1ccccc1S2` [MLS000038082] was 33.9 µM.
The compound `Cc1ccc2[nH]c3c(NCc4ccco4)ncnc3c2c1` [MLS000040855] came in with an EC50 of 9.9 µM.
On the same count and under the same terms, the value for `CCCCOc1ncnc2c1[nH]c1ccccc12` [MLS000041483] was 4.18 µM; that for `COc1ccc(CCNc2ncnc3c2oc2ccccc23)cc1OC` [MLS000041708] was 0.537 µM.
Still for that read-out and setting: the value for `CCCC(=O)Nc1ccc2oc(-c3ccc(OC)c(Br)c3)nc2c1` [MLS000042482] was 4.96 µM; that for `CCOc1ccccc1OCCCCCc1c(C)n[nH]c1C` [MLS000043342] was 1.56 µM.
Regarding `Cc1cc(C(=O)Nc2sc(C)c(-c3ccc(F)cc3)c2C(N)=O)no1` [MLS000043467], the midpoint of the response, the EC50, lay at 6.79 µM.
`Cn1nc(CC(=O)Nc2ccc3c(c2)OCCO3)c2ccccc2c1=O` [MLS000047020]: the EC50 was 5.94 µM.
Regarding `O=C(Nc1ccc(-c2noc(CCc3ccccc3)n2)cc1)c1cccnc1` [MLS000047253], it took 3.6 µM to reach a half-maximal effect (EC50). This EC50 lies about 1.7-fold lower than the previous one.
Same read-out and setting: the value for `COc1ccc(-n2nc3ccc(NS(C)(=O)=O)cc3n2)cc1Cl` [MLS000049114] was 0.148 µM.
Still for that read-out and setting: the value for `O=S(=O)(Nc1ccc2c(c1)OCCO2)c1ccc2oc3ccccc3c2c1` [MLS000051884] was 7.68 µM; that for `CCN=c1scc(-c2ccc3c(c2)NC(=O)CO3)n1N=C1CCCC1` [MLS000054638] was 8.6 µM; that for `CCOC(=O)c1c(C)[nH]c(C(=O)C(C)OC(=O)c2cccc(OCc3c(C)noc3C)c2)c1C` (stereo not drawn) [MLS000054923] was 4.37 µM.
Same read-out and setting: the value for `COc1cc(C(=O)N2CCN(S(=O)(=O)c3ccc(C)cc3)CC2)ccc1OCc1c(C)noc1C` [MLS000056221] was above 95 µM; that for `CC(=O)Nc1ccccc1OCC(=O)c1cc(C)n(Cc2cccs2)c1C` [MLS000056239] was 0.202 µM; that for `CCCn1c(NC(=O)c2cccc(S(=O)(=O)N3CCCC3)c2)nc2ccccc21` [MLS000057540] was 8.82 µM.
Compound `c1ccc2c(c1)oc1c(NCc3ccc4c(c3)OCO4)ncnc12` [MLS000057790] registered an EC50 of 5.6 µM.
Compound `CCCC(=O)Nc1ccc(-c2nc3cc(C)ccc3o2)cc1` [MLS000061826] yielded an EC50 of 5.96 µM.
Same read-out and setting: the figure for `O=C(Nc1ccc(N2CCOCC2)c(Cl)c1)c1cccc(F)c1` [MLS000066209] is 1.23 µM; for `Cc1ccc2oc(-c3ccc(NC(=O)c4cccnc4)cc3)nc2c1` [MLS000068975] it is 3.05 µM; for `CCN(C(=O)c1ccc(C(C)(C)C)cc1)c1nnc(Cn2nnc3ccccc32)s1` [MLS000072751] it is 1.49 µM.
Same read-out and setting: the value for `O=C(Nc1nc(-c2ccc3c(c2)OCO3)cs1)c1ccncc1` [MLS000073104] was 9.54 µM; that for `Cc1ccc2c(c1)N(CC(=O)Nc1ccc3c(c1)OCCO3)C(=O)CO2` [MLS000074457] was above 95 µM.
Still for that read-out and setting: the value for `CCCN(C(=O)c1cccs1)c1nnc(-c2ccncc2)s1` [MLS000074637] was 3.38 µM; that for `Cc1ccnc(SCC(=O)Nc2sc3c(c2C#N)CCCC3)n1` [MLS000077260] was 4.76 µM; that for `c1ccc(CN2CCN(c3ncnc4c3[nH]c3ccccc34)CC2)cc1` [MLS000078384] was 4.18 µM.
`Fc1ccc2[nH]c3c(N4CCSCC4)ncnc3c2c1` [MLS000078401] showed an EC50 of 6.12 µM. This EC50 and that of the compound before are within 1.5-fold of each other.
Same read-out and setting: the value for `NC(=Nc1nc2c(c(=O)[nH]1)CCCC2)Nc1ccccc1` [MLS000078734] was 7.23 µM; that for `CCc1ccc(NC(=O)c2cc(-c3ccco3)on2)cc1` [MLS000087211] was 6.93 µM.
`Cc1ccc(NC(=O)c2cc(-c3ccco3)on2)cc1C` [MLS000087214] gave an EC50 of 4.99 µM.
The compound `CCc1c(C)sc(NC(=O)c2cc(-c3ccco3)on2)c1C#N` [MLS000087225] had an EC50 of 4.14 µM.
Same read-out and setting: the figure for `Cc1nn(Cc2ccc(Cl)c(Cl)c2)c(C)c1NC(=O)c1cc(-c2ccco2)on1` [MLS000087229] is 5.63 µM.
For the compound `COc1ccc(NC(=O)c2cc(-c3cccs3)on2)cc1OC` [MLS000087261], the EC50 stood at 5.79 µM. This EC50 and that of the compound before are within 1.5-fold of each other.
Still for that read-out and setting: the value for `COc1ccc2c(c1)CCc1c(C(=O)Nc3ccc(OC)c(OC)c3)noc1-2` [MLS000087452] was 3.3 µM.
On the same count and under the same terms, the figure for `CCOc1ccc(C(C)=O)cc1-n1c(O)c2c(c1O)C1C=CC2O1` [MLS000087730] is 10.2 µM.
`Cn1c(SCC(=O)Nc2ccc(N3CCOCC3)c(Cl)c2)nnc1-c1ccccc1` [MLS000089171] returned an EC50 of 2.22 µM.
The same measure, in the same setting: the value for `O=S(=O)(NCc1cn2ccsc2n1)c1ccc(Oc2ccccc2)cc1` [MLS000094195] was 6.07 µM; that for `CCCC(=O)N1CCN(c2ccc(NC(=O)c3cc4ccccc4o3)cc2Cl)CC1` [MLS000096729] was 8.85 µM.
Same read-out and setting: the figure for `CCCc1ccc(OCc2nc(-c3ccc(NC(=O)c4ccco4)cc3)no2)cc1` [MLS000097352] is 4.39 µM.
Same read-out and setting: the figure for `O=C(Nc1nc(-c2ccc(Cl)s2)cs1)c1ccncc1` [MLS000098514] is above 3 µM.

Staying with this test, now noted: inactive by the depositor's call.
For `CCc1ccc2c(COC(=O)c3n[nH]c4ccccc34)cc(=O)oc2c1` [(7-ethyl-2-oxochromen-4-yl)methyl 1H-indazole-3-carboxylate], the midpoint of the response, the EC50, lay at 10.6 µM. In other words, the double-digit micromolar range.
On the same count and under the same terms, the figure for `Cc1noc(/C=C/N(C)C)c1S(=O)(=O)N1CCc2ccccc21` [(E)-2-[4-(2,3-dihydroindol-1-ylsulfonyl)-3-methyl-1,2-oxazol-5-yl]-N,N-dimethyl-ethenamine] is 95 µM; for `CC1=C(/C=C/C(C)=C/C=C/C(C)=C/C(=O)O)C(C)(C)CCC1` [ALL-TRANS-RETINOIC ACID] it is 25.4 µM; for `CC1Cc2cc(-c3csc(NC(=O)Cc4cccs4)n3)ccc2N1S(C)(=O)=O` (stereo not drawn) [MLS000027766] it is 11.8 µM.
The compound `Cc1ccccc1OCC(=O)Nc1ccc(N2CCN(C(=O)C(C)C)CC2)c(Cl)c1` [MLS000034491] gave an EC50 of 16.8 µM.
On the same count and under the same terms, the figure for `CC(=O)c1sc(NC(=O)C2(F)C(F)(F)C(F)(F)C(F)(F)C(F)(F)C2(F)F)nc1C` [MLS000040071] is 30.4 µM; for `CC(C)[C@H](NC(=O)OC(C)(C)C)c1nnc(SCC(=O)Nc2ccc(Br)cc2)o1` [MLS000040800] it is 14.7 µM; for `CC(C)OCCCNc1ncnc2c1[nH]c1ccccc12` [MLS000041327] it is 14 µM.
Still for that read-out and setting: the figure for `COc1cccc(-c2nc(-c3ccc(NC(=O)c4cccnc4)cc3)no2)c1` [MLS000047254] is 26.1 µM; for `CC(=O)Nc1ccc(S(=O)(=O)N2CCN(CCCOc3cc(C)ccc3C)CC2)cc1` [MLS000050317] it is 15.2 µM; for `N#C/C(=C/c1ccc(N2CCCCCC2)o1)c1ccc(F)cc1` [MLS000051438] it is 22.4 µM.
`CN(Cc1cccs1)c1ncnc2sccc12` [MLS000056228] came in with a concentration giving a half-maximal response (EC50) of 13 µM.
Regarding `Cc1csc(NC(=O)c2nc(-c3ccccc3)n(-c3ccccc3)n2)n1` [MLS000058347], the EC50 came out at 10.1 µM.
For the compound `COc1cccc(-c2csc(N3CCN(CC(=O)Nc4ccc5c(c4)OCO5)CC3)n2)c1` [MLS000070935], the EC50 amounted to 17 µM.
Compound `O=C(c1ccco1)N1CCN(c2ncnc3c2[nH]c2ccc(Br)cc23)CC1` [MLS000078404] returned an EC50 of 13.9 µM.
Same read-out and setting: the value for `CCN(CC)C(=O)Oc1ccc2c(=O)c(-c3ccc(OC)cc3)coc2c1` [MLS000083046] was 12.9 µM; that for `COc1ccc(-c2cc(C(=O)NC3CCCC3)no2)cc1OC` [MLS000087117] was 15.8 µM; that for `COc1ccc(OC)c(-c2cc(C(=O)Nc3c(C)nn(Cc4ccc(Cl)cc4)c3C)no2)c1` [MLS000087191] was 20.8 µM.
On the same count and under the same terms, the value for `Cc1nn(Cc2ccc(Cl)cc2)c(C)c1NC(=O)c1cc(-c2ccco2)on1` [MLS000087233] was 13.8 µM.
Still for that read-out and setting: the figure for `COc1ccc2c(c1)CCc1c(C(=O)NC3CCCCC3)noc1-2` [MLS000087437] is 95 µM.
As to `O=C(Nc1nc(-c2nc3ccccc3s2)cs1)c1ccc(S(=O)(=O)N2CCOCC2)cc1` [MLS000087900], the EC50 is 17.6 µM. This EC50 is about 5.4-fold lower than that of the compound before.
In the case of `CCCC(=O)Nc1ccc(-c2nc3cc(C)c(C)cc3o2)cc1` [MLS000089940], the EC50 is 10.2 µM.
